Assay results reported in US8415342B2, “Besifloxacin ophthalmic composition for the treatment or control of infection” (Bausch & Lomb Incorporated, priority 2008, dated 2013).
≈ marks a conversion by molar mass, not a printed value. Like-named read-outs stand apart in the source and are kept apart here.

Experiments:
Format in all cases: cell-based
[1] = test system: S. pneumoniae topoisomerase mutants; assay: MIC against defined topoisomerase mutants; conditions: Streptococcus pneumoniae
[2] = test system: E. coli topoisomerase mutants; assay: MIC against defined topoisomerase mutants; conditions: Escherichia coli
Procedure: Furthermore, an experiment was conducted to assess the mechanism of action of besifloxacin in S. pneumoniae, S. aureus, and E. coli via step selections for isolates with decreased susceptibility to besifloxacin, as well as by testing for altered susceptibilities of ciprofloxacin-resistant variants of all three species containing genetically defined mutations in the quinolone resistance determining regions (QRDRs) of structural genes encoding DNA gyrase and topoisomerase IV (Table 2).

[3] = test system: S. aureus topoisomerase mutants; assay: MIC against defined topoisomerase mutants; conditions: Staphylococcus aureus
Legionella pneumophila = assay: microbe, parasite or virus in culture
Klebsiella oxytoca = assay: MIC, CLSI broth microdilution, clinical isolates; conditions: Klebsiella oxytoca (N = 50)
Streptococcus pneumoniae = assay: MIC, CLSI broth microdilution, clinical isolates
Staphylococcus aureus = assay: MIC, CLSI broth microdilution, clinical isolates; conditions: for MIC50 / MIC90: Staphylococcus aureus
[4] = test system: Staphylococcus epidermidis; assay: MIC, CLSI broth microdilution, clinical isolates; conditions: for MIC50: Staphylococcus epidermidis
[5] = test system: Staphylococcus lugdunensis; assay: MIC, CLSI broth microdilution, clinical isolates; conditions: Staphylococcus lugdunensis (N = 15)
Morganella morganii = assay: MIC, CLSI broth microdilution, clinical isolates; conditions: Morganella morganii (N = 51)
Citrobacter koseri = assay: MIC, CLSI broth microdilution, clinical isolates; conditions: Citrobacter koseri (N = 100)
[6] = test system: Staphylococcus haemolyticus; assay: MIC, CLSI broth microdilution, clinical isolates; conditions: Staphylococcus haemolyticus (N = 101)
[7] = test system: Staphylococcus saprophyticus; assay: MIC, CLSI broth microdilution, clinical isolates; conditions: Staphylococcus saprophyticus (N = 101)
Staphylococcus hominis = assay: MIC, CLSI broth microdilution, clinical isolates; conditions: Staphylococcus hominis (N = 50)
Haemophilus influenzae = assay: MIC, CLSI broth microdilution, clinical isolates; conditions: for MIC50 / MIC90: Haemophilus influenzae
Viridans streptococci = assay: MIC, CLSI broth microdilution, clinical isolates; conditions: Viridans streptococci (N = 156)
Streptococcus agalactiae = assay: MIC, CLSI broth microdilution, clinical isolates; conditions: Streptococcus agalactiae (N = 100)
Moraxella catarrhalis = assay: MIC, CLSI broth microdilution, clinical isolates; conditions: Moraxella catarrhalis (N = 101)
Staphylococcus warneri = assay: MIC, CLSI broth microdilution, clinical isolates; conditions: Staphylococcus warneri (N = 50)
Streptococcus pyogenes = assay: MIC, CLSI broth microdilution, clinical isolates; conditions: Streptococcus pyogenes (N = 101)
[8] = test system: Lancefield group C, F, G streptococci; assay: MIC, CLSI broth microdilution, clinical isolates; conditions: G streptococci (N = 50)
[9] = Streptococcus pneumoniae (PISP, N = 2)
[10] = Streptococcus pneumoniae (PRSP, N = 2)
[11] = Streptococcus pneumoniae (PSSP, N = 31)
[12] = Streptococcus pneumoniae (all phenotypes, N = 35)
[13] = Staphylococcus aureus (CNS, N = 16)
[14] = Staphylococcus aureus (CS, N = 14)
[15] = Staphylococcus aureus (all phenotypes, N = 30)
[16] = MRSA, Staphylococcus aureus (MRSA, N = 11)
[17] = MSSA, Staphylococcus aureus (MSSA, N = 19)
[18] = Staphylococcus epidermidis (CNS, N = 6)
[19] = Staphylococcus epidermidis (CS, N = 9)
[20] = Staphylococcus epidermidis (MSSE, N = 6)
[21] = Staphylococcus epidermidis (all phenotypes, N = 15)
[22] = Haemophilus influenzae (all phenotypes, N = 40)
[23] = Haemophilus influenzae (bla negative, N = 24)
[24] = Haemophilus influenzae (bla positive, N = 16)

With `O=C(O)c1cn(C2CC2)c2cc(N3CCNCC3)c(F)cc2c1=O` [Ciprofloxacin] the MIC ([1]; S. pneumoniae parC S79Y) was 8 µg/mL (≈ 24.1 µM), the MIC ([1]; S. pneumoniae parC S79Y + gyrA S81F) was 64 µg/mL and the MIC ([2]; E. coli Wild type) was 0.008 µg/mL (≈ 0.0241 µM). The MIC ([2]; E. coli gyrA D87Y (or S83L)) was 0.12 µg/mL (≈ 0.362 µM), the MIC ([2]; E. coli gyrA S83L + parC S80R) was 4 µg/mL and the MIC ([2]; E. coli gyrA S83L + parE H445L) was 0.12 µg/mL. It also gave an MIC ([2]; E. coli gyrB D426N) of 0.03 µg/mL (≈ 0.0905 µM), an MIC ([3]; S. aureus Wild type) of 1 µg/mL (≈ 3.02 µM) and an MIC ([3]; S. aureus parC S80F + gyrA S84L) of 64 µg/mL.
For `C[C@H]1COc2c(N3CCN(C)CC3)c(F)cc3c(=O)c(C(=O)O)cn1c23` [Levofloxacin], the MIC50 (Legionella pneumophila; Legionella pneumophila) was 0.03 µg/mL (≈ 0.083 µM), the MIC90 (Legionella pneumophila; Legionella pneumophila) was 0.03 µg/mL (≈ 0.083 µM) and the “MIC Range” value (Legionella pneumophila; Legionella pneumophila (N = 50)) was 0.015 to 0.06 µg/mL. The “% S” value (Klebsiella oxytoca) was 90.0%, the MIC50 (Klebsiella oxytoca) was 0.03 µg/mL (≈ 0.083 µM) and the MIC90 (Klebsiella oxytoca) was 0.5 µg/mL (≈ 1.38 µM). The “MIC Range” value (Klebsiella oxytoca) was 0.015 to 8 µg/mL, the “% S” value (Streptococcus pneumoniae; [9]) was 100.0% and the “MIC Range” value (Streptococcus pneumoniae; [9]) was 0.5 to 1 µg/mL. The “% S” value (Streptococcus pneumoniae; [10]) was 100.0%, the “MIC Range” value (Streptococcus pneumoniae; [10]) was 0.5 to 1 µg/mL and the “% S” value (Streptococcus pneumoniae; [11]) was 96.8%. For the same compound, the MIC50 (Streptococcus pneumoniae; [11]) was 0.5 µg/mL (≈ 1.38 µM), the MIC90 (Streptococcus pneumoniae; [11]) was 1 µg/mL (≈ 2.77 µM) and the “MIC Range” value (Streptococcus pneumoniae; [11]) was 0.5 to 8 µg/mL. For the same compound, the “% S” value (Streptococcus pneumoniae; [12]) was 97.1%, the “MIC Range” value (Streptococcus pneumoniae; [12]) was 0.5 to 8 µg/mL and the MIC50 (Streptococcus pneumoniae; Streptococcus pneumoniae (all phenotypes, N = 35), read-out: MIC50) was 0.5 µg/mL (≈ 1.38 µM). The MIC90 (Streptococcus pneumoniae; Streptococcus pneumoniae (all phenotypes, N = 35), read-out: MIC90) was 1 µg/mL (≈ 2.77 µM), the “% S” value (Staphylococcus aureus; [13]) was 12.5% and the “% S” value (Staphylococcus aureus; [14]) was 92.9%. The “MIC Range” value (Staphylococcus aureus; [14]) was 0.06 to 2 µg/mL, the “% S” value (Staphylococcus aureus; Staphylococcus aureus (MRSA, N = 11)) was 18.2% and the “% S” value (Staphylococcus aureus; Staphylococcus aureus (MSSA, N = 19)) was 68.4%. The “% S” value (Staphylococcus aureus; [15]) was 50.0%, the MIC50 (Staphylococcus aureus; [16]) was 4 µg/mL (≈ 11.1 µM) and the MIC90 (Staphylococcus aureus; [16]) was > 8 µg/mL. For the same compound, the MIC50 (Staphylococcus aureus; [17]) was 0.25 µg/mL (≈ 0.692 µM), the MIC90 (Staphylococcus aureus; [17]) was 4 µg/mL (≈ 11.1 µM) and the MIC50 (Staphylococcus aureus; [13]) was 4 µg/mL (≈ 11.1 µM). For the same compound, the MIC90 (Staphylococcus aureus; [13]) was > 8 µg/mL, the MIC50 (Staphylococcus aureus; [14]) was 0.12 µg/mL (≈ 0.332 µM) and the MIC90 (Staphylococcus aureus; [14]) was 0.25 µg/mL (≈ 0.692 µM). The MIC50 (Staphylococcus aureus; [15]) was 1 µg/mL (≈ 2.77 µM), the MIC90 (Staphylococcus aureus; [15]) was > 8 µg/mL and the “% S” value [4, 18] was 0.0%. For the same compound, the “% S” value [4, 19] was 100.0%, the “MIC Range” value [4, 19] was 0.12-0.12 μg/mL and the “% S” value ([4]; Staphylococcus epidermidis (MRSE, N = 9)) was 44.4%. For the same compound, the “% S” value [4, 20] was 83.3%, the “MIC Range” value [4, 20] was 0.12 to 8 µg/mL and the “% S” value [4, 21] was 60.0%. For the same compound, the MIC90 [4, 21] was > 8 µg/mL, the MIC50 ([4]; MRSE, Staphylococcus epidermidis (MRSE, N = 9)) was 2 µg/mL (≈ 5.53 µM) and the MIC50 [4, 18] was 8 µg/mL (≈ 22.1 µM). For the same compound, the MIC50 [4, 19] was 0.12 µg/mL (≈ 0.332 µM), the MIC50 [4, 20] was 0.12 µg/mL (≈ 0.332 µM) and the MIC50 [4, 21] was 0.12 µg/mL (≈ 0.332 µM). The “% S” value [5] was 66.7%, the MIC50 [5] was 0.25 µg/mL (≈ 0.692 µM) and the MIC90 [5] was > 8 µg/mL. For the same compound, the “% S” value (Morganella morganii) was 76.5%, the MIC50 (Morganella morganii) was 0.06 µg/mL (≈ 0.166 µM) and the MIC90 (Morganella morganii) was 8 µg/mL (≈ 22.1 µM). The “% S” value (Citrobacter koseri) was 99.0%, the MIC50 (Citrobacter koseri) was 0.03 µg/mL (≈ 0.083 µM) and the MIC90 (Citrobacter koseri) was 0.12 µg/mL (≈ 0.332 µM). For the same compound, the “% S” value [6] was 39.6%, the MIC50 [6] was 4 µg/mL (≈ 11.1 µM) and the MIC90 [6] was > 8 µg/mL. The “% S” value [7] was 100.0%, the MIC50 [7] was 0.5 µg/mL (≈ 1.38 µM) and the MIC90 [7] was 0.5 µg/mL (≈ 1.38 µM). For the same compound, the “MIC Range” value [7] was 0.06 to 0.5 µg/mL, the “% S” value (Staphylococcus hominis) was 30.0% and the MIC50 (Staphylococcus hominis) was 8 µg/mL (≈ 22.1 µM). The MIC90 (Staphylococcus hominis) was > 8 µg/mL, the “% S” value (Haemophilus influenzae; [22]) was 100.0% and the “MIC Range” value (Haemophilus influenzae; [22]) was 0.008 to 0.015 µg/mL. For the same compound, the “% S” value (Haemophilus influenzae; [23]) was 100.0%, the “MIC Range” value (Haemophilus influenzae; [23]) was 0.008 to 0.015 µg/mL and the “% S” value (Haemophilus influenzae; [24]) was 100.0%. For the same compound, the “MIC Range” value (Haemophilus influenzae; [24]) was 0.015-0.015 μg/mL, the MIC50 (Haemophilus influenzae; [22]) was 0.015 µg/mL (≈ 0.0415 µM) and the MIC90 (Haemophilus influenzae; [22]) was 0.015 µg/mL (≈ 0.0415 µM). For the same compound, the MIC50 (Haemophilus influenzae; [23]) was 0.015 µg/mL (≈ 0.0415 µM), the MIC90 (Haemophilus influenzae; [23]) was 0.015 µg/mL (≈ 0.0415 µM) and the MIC50 (Haemophilus influenzae; [24]) was 0.015 µg/mL (≈ 0.0415 µM). The MIC90 (Haemophilus influenzae; [24]) was 0.015 µg/mL (≈ 0.0415 µM), the “% S” value (Viridans streptococci) was 95.5% and the MIC50 (Viridans streptococci; read-out: MIC50) was 1 µg/mL (≈ 2.77 µM). For the same compound, the MIC90 (Viridans streptococci; read-out: MIC90) was 1 µg/mL (≈ 2.77 µM), the “% S” value (Streptococcus agalactiae) was 98.0% and the “MIC Range” value (Streptococcus agalactiae) was 0.25 to 4 µg/mL. The MIC50 (Streptococcus agalactiae; read-out: MIC50) was 0.5 µg/mL (≈ 1.38 µM), the MIC90 (Streptococcus agalactiae; read-out: MIC90) was 1 µg/mL (≈ 2.77 µM) and the “% S” value (Moraxella catarrhalis) was 100.0%. For the same compound, the MIC50 (Moraxella catarrhalis) was 0.015 µg/mL (≈ 0.0415 µM), the MIC90 (Moraxella catarrhalis) was 0.03 µg/mL (≈ 0.083 µM) and the “MIC Range” value (Moraxella catarrhalis) was 0.015 to 0.5 µg/mL. For the same compound, the “% S” value (Staphylococcus warneri) was 76.0%, the MIC50 (Staphylococcus warneri) was 0.12 µg/mL (≈ 0.332 µM) and the MIC90 (Staphylococcus warneri) was > 8 µg/mL. For the same compound, the “% S” value (Streptococcus pyogenes) was 100.0%, the “MIC Range” value (Streptococcus pyogenes) was 0.25 to 2 µg/mL and the MIC50 (Streptococcus pyogenes; read-out: MIC50) was 0.5 µg/mL (≈ 1.38 µM). The MIC90 (Streptococcus pyogenes; read-out: MIC90) was 0.5 µg/mL (≈ 1.38 µM), the “% S” value [8] was 98.0% and the “MIC Range” value [8] was 0.12 to 8 µg/mL. The MIC50 ([8]; read-out: MIC50) was 0.5 µg/mL (≈ 1.38 µM) and the MIC90 ([8]; read-out: MIC90) was 0.5 µg/mL (≈ 1.38 µM).
